From ChEMBL document CHEMBL1201862, “PubChem BioAssay data set” (2004)
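Protocol summary: plate cells (96-well), add compound at 5 concentrations, incubate 48 h, interpolate endpoints linearly. GI50: concentration for 50% inhibition of growth.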 Active and inactive are the calls of the source. Cut-off read from the data, not from the text of the source: active = GI50 up to about 1.1 µM and inactive = higher.

Experiments:
Test in all cases: DTP human tumour cell line panel, 48 h
HCT-15 = tested on: HCT-15
COLO 205 = tested on: COLO 205
786-0 = tested on: 786-0
SK-MEL-5 = tested on: SK-MEL-5
NCI-H522 = tested on: NCI-H522
A549 = tested on: A549
UACC-257 = tested on: UACC-257
ACHN = tested on: ACHN
UO-31 = tested on: UO-31
CCRF-CEM = tested on: CCRF-CEM
OVCAR-5 = tested on: OVCAR-5
NCI-H23 = tested on: NCI-H23
EKVX = tested on: EKVX
HCC 2998 = tested on: HCC 2998
SK-MEL-28 = tested on: SK-MEL-28
RXF 393 = tested on: RXF 393
KM12 = tested on: KM12
SW-620 = tested on: SW-620
OVCAR-8 = tested on: OVCAR-8
M19-MEL = tested on: M19-MEL
NCI-H460 = tested on: NCI-H460
SF-539 = tested on: SF-539
HCT-116 = tested on: HCT-116
SK-MEL-2 = tested on: SK-MEL-2
XF498 = tested on: XF498
LOX IMVI = tested on: LOX IMVI
DMS-273 = tested on: DMS-273
SN12C = tested on: SN12C
SNB-78 = tested on: SNB-78
A498 = tested on: A498
Malme-3M = tested on: Malme-3M
DMS-114 = tested on: DMS-114
HOP-62 = tested on: HOP-62
SF-295 = tested on: SF-295
MOLT-4 = tested on: MOLT-4
SNB-75 = tested on: SNB-75
OVCAR-3 = tested on: OVCAR-3
HOP-18 = tested on: HOP-18
HT-29 = tested on: HT-29
SNB-19 = tested on: SNB-19
DLD-1 = tested on: DLD-1
LXFL 529 = tested on: LXFL 529
TK-10 = tested on: TK-10
OVCAR-4 = tested on: OVCAR-4
K562 = tested on: K562
U-251 = tested on: U-251
CAKI-1 = tested on: CAKI-1
RXF 631 = tested on: RXF 631
UACC-62 = tested on: UACC-62
KM-20L2 = tested on: KM-20L2
IGROV-1 = tested on: IGROV-1
M14 = tested on: M14
SF-268 = tested on: SF-268
SK-OV-3 = tested on: SK-OV-3

O=S(O)CCCCSSCCCCS(=O)(=O)S
GI50 (HCT-15): 59 µM
GI50 (COLO 205): 48.5 µM (inactive)
GI50 (786-0): > 100 µM (inactive)
GI50 (SK-MEL-5): 14.2 µM (inactive)
GI50 (NCI-H522): 19.3 µM (inactive)
GI50 (A549): 40.7 µM (inactive)
GI50 (UACC-257): 21.1 µM (inactive)
GI50 (ACHN): 72.6 µM (inactive)
GI50 (UO-31): 51.3 µM (inactive)
GI50 (CCRF-CEM): 13.8 µM (inactive)
GI50 (OVCAR-5): > 100 µM (inactive)
GI50 (NCI-H23): 53.6 µM (inactive)
GI50 (EKVX): 19.4 µM (inactive)
GI50 (HCC 2998): > 100 µM (inactive)
GI50 (SK-MEL-28): 27 µM (inactive)
GI50 (RXF 393): 43.3 µM (inactive)
GI50 (KM12): 67.6 µM (inactive)
GI50 (SW-620): 37.7 µM (inactive)
GI50 (OVCAR-8): 37.8 µM (inactive)
GI50 (M19-MEL): 12.1 µM (inactive)
GI50 (NCI-H460): 64.3 µM (inactive)
GI50 (SF-539): 98.6 µM (inactive)
GI50 (HCT-116): > 100 µM (inactive)
GI50 (SK-MEL-2): 35.7 µM (inactive)
GI50 (XF498): 15.3 µM (inactive)
GI50 (LOX IMVI): 27.4 µM (inactive)
GI50 (DMS-273): 50.9 µM (inactive)
GI50 (SN12C): 71 µM (inactive)
GI50 (SNB-78): 35.1 µM (inactive)
GI50 (A498): > 100 µM (inactive)
GI50 (Malme-3M): 17.6 µM (inactive)
GI50 (DMS-114): 39.4 µM (inactive)
GI50 (HOP-62): > 100 µM (inactive)
GI50 (SF-295): 35.5 µM (inactive)
GI50 (MOLT-4): 2 µM (inactive)
GI50 (SNB-75): 10.9 µM (inactive)
GI50 (OVCAR-3): 49.2 µM (inactive)
GI50 (HOP-18): 84.3 µM (inactive)
GI50 (HT-29): 38.6 µM (inactive)
GI50 (SNB-19): > 100 µM (inactive)
GI50 (DLD-1): > 100 µM (inactive)
GI50 (LXFL 529): 22.2 µM (inactive)
GI50 (TK-10): 42.6 µM (inactive)
GI50 (OVCAR-4): 25.5 µM (inactive)
GI50 (K562): 32.1 µM (inactive)
GI50 (U-251): > 100 µM (inactive)
GI50 (CAKI-1): > 100 µM (inactive)
GI50 (RXF 631): 51.9 µM (inactive)
GI50 (UACC-62): 18 µM (inactive)
GI50 (KM-20L2): > 100 µM (inactive)
GI50 (IGROV-1): > 100 µM (inactive)
GI50 (M14): 15.7 µM (inactive)
GI50 (SF-268): 35.6 µM (inactive)
GI50 (SK-OV-3): > 100 µM (inactive)
